In patent publication US20250101041A1, “POSITIVE ALLOSTERIC MODULATORS OF THE MUSCARINIC ACETYLCHOLINE RECEPTOR M4” (Vanderbilt University, priority 2022, published 2025):

Target: T1, human mAChR M4 (Homo sapiens, UniProt P08173)
T1 construct: expressed in transfected cells; host or cells: CHO-K1 (American Type Culture Collection), stably expressing hM4 and Gqi5
T1 sequence (P08173 1-479): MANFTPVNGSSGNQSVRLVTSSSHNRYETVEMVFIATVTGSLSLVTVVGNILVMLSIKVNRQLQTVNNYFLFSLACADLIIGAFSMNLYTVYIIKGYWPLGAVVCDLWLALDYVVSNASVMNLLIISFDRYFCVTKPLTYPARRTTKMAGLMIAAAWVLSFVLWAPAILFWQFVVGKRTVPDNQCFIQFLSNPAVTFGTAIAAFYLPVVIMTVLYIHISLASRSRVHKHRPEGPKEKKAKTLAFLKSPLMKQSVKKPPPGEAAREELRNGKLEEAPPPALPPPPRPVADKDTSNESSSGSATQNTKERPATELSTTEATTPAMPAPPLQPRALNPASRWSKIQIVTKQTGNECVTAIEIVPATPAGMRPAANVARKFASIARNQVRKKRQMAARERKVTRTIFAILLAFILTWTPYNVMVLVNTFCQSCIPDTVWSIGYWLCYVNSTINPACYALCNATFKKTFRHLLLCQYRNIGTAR
Assay: mAChR M4 cell-based functional assay: calcium mobilization (Fluo-4, FDSS), potentiation of EC20 acetylcholine response in hM4-Gqi5 CHO-K1 cells
Settings: human M4; for Emax at 30 µM: CHO-K1, % ACh maximum at 30 μM; for EC50: potentiation of EC20 acetylcholine response, calcium mobilization
How it was run: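 CHO-K1 cells stably co-expressing human M4 and chimeric Gqi5, loaded with Fluo-4 AM (50 min, 37 °C). Compounds in 11-point 1:3 series added first; EC20 acetylcholine added at 144 s and again at 230 s. Calcium read on FDSS at 1 Hz; EC50 and Emax from four-parameter logistic fit of potentiated EC20 response.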

| SMILES | Emax at 30 µM | EC50 |
| --- | --- | --- |
| Cc1c(N2CCc3ncc(N4C(=O)Cc5ncccc54)cc3C2)nn2c(=O)ccnc2c1C [Compound 2-149, 8,9-dimethyl-7-(3-(2-oxo-2,3-dihydro-1H-pyrrolo[3,2-b]pyridin-1-yl)-7,8-dihydro-1,6-naphthyridin-6(5H)-yl)-4H-pyrimido[1,2-b]pyridazin-4-one] | 50% | 1050 nM |
| Cc1c(N2CCc3ncc(N4CC(C)(C)OC4=O)cc3C2)nn2c(=O)ccnc2c1C [Compound 2-150, 3-(6-(8,9-dimethyl-4-oxo-4H-pyrimido[1,2-b]pyridazin-7-yl)-5,6,7,8-tetrahydro-1,6-naphthyridin-3-yl)-5,5-dimethyloxazolidin-2-one] | 63% | 4380 nM |
| Cc1cc2nccc(=O)n2nc1N1CCc2ncc(N3CC4(COC4)C3)cc2C1 [Compound 2-151, 7-(3-(2-oxa-6-azaspiro[3.3]heptan-6-yl)-7,8-dihydro-1,6-naphthyridin-6(5H)-yl)-8-methyl-4H-pyrimido[1,2-b]pyridazin-4-one] | 56% |  |
| Cc1cc2nccc(=O)n2nc1N1CCc2ncc(Nc3cc(C(F)(F)F)ncc3F)cc2C1 [Compound 2-152, 7-(3-((5-fluoro-2-(trifluoromethyl)pyridin-4-yl)amino)-7,8-dihydro-1,6-naphthyridin-6(5H)-yl)-8-methyl-4H-pyrimido[1,2-b]pyridazin-4-one] | 88% | 1320 nM |
| Cc1cc2nccc(=O)n2nc1N1CCc2ncc(Nc3ccnc(C)c3F)cc2C1 [Compound 2-153, 7-(3-((3-fluoro-2-methylpyridin-4-yl)amino)-7,8-dihydro-1,6-naphthyridin-6(5H)-yl)-8-methyl-4H-pyrimido[1,2-b]pyridazin-4-one] | 83% | 27 nM |
| Cc1cc2nccc(=O)n2nc1N1CCc2ncc(Nc3c(F)cncc3F)cc2C1 [Compound 2-154, 7-(3-((3,5-difluoropyridin-4-yl)amino)-7,8-dihydro-1,6-naphthyridin-6(5H)-yl)-8-methyl-4H-pyrimido[1,2-b]pyridazin-4-one] | 90% | 41 nM |
| Cc1cc(Nc2cnc3c(c2)CN(c2nn4c(=O)ccnc4cc2C)CC3)c(F)cn1 [Compound 2-155, 7-(3-((5-fluoro-2-methylpyridin-4-yl)amino)-7,8-dihydro-1,6-naphthyridin-6(5H)-yl)-8-methyl-4H-pyrimido[1,2-b]pyridazin-4-one] | 94% | 21 nM |
| Cc1cc2nc(C)c(F)c(=O)n2nc1N1CCc2ncc(Nc3ccncc3F)cc2C1 [Compound 2-156, 3-fluoro-7-(3-((3-fluoropyridin-4-yl)amino)-7,8-dihydro-1,6-naphthyridin-6(5H)-yl)-2,8-dimethyl-4H-pyrimido[1,2-b]pyridazin-4-one] | 97% | 64 nM |
| Cc1cc2ncc(Cl)c(=O)n2nc1N1CCc2ncc(Nc3ccncc3F)cc2C1 [Compound 2-157, 3-chloro-7-(3-((3-fluoropyridin-4-yl)amino)-7,8-dihydro-1,6-naphthyridin-6(5H)-yl)-8-methyl-4H-pyrimido[1,2-b]pyridazin-4-one] | 90% | 3 nM |
| Cc1cc2nc(C)c(C)c(=O)n2nc1N1CCc2ncc(Nc3ccncc3F)cc2C1 [Compound 2-158, 7-(3-((3-fluoropyridin-4-yl)amino)-7,8-dihydro-1,6-naphthyridin-6(5H)-yl)-2,3,8-trimethyl-4H-pyrimido[1,2-b]pyridazin-4-one] | 91% | 1 nM |
| Cc1cc2nc(C(F)F)cc(=O)n2nc1N1CCc2ncc(Nc3ccncc3F)cc2C1 [Compound 2-159, 2-(difluoromethyl)-7-(3-((3-fluoropyridin-4-yl)amino)-7,8-dihydro-1,6-naphthyridin-6(5H)-yl)-8-methyl-4H-pyrimido[1,2-b]pyridazin-4-one] | 94% | 1 nM |
| Cc1cc2nc(C(F)(F)F)cc(=O)n2nc1N1CCc2ncc(Nc3ccncc3F)cc2C1 [Compound 2-160, 7-(3-((3-fluoropyridin-4-yl)amino)-7,8-dihydro-1,6-naphthyridin-6(5H)-yl)-8-methyl-2-(trifluoromethyl)-4H-pyrimido[1,2-b]pyridazin-4-one] | 92% | 8 nM |
| Cc1cc2nc(C)c(Cl)c(=O)n2nc1N1CCc2ncc(Nc3ccncc3F)cc2C1 [Compound 2-161, 3-chloro-7-(3-((3-fluoropyridin-4-yl)amino)-7,8-dihydro-1,6-naphthyridin-6(5H)-yl)-2,8-dimethyl-4H-pyrimido[1,2-b]pyridazin-4-one] | 95% | 1 nM |
| [2H]C1([2H])Cc2ncc(Nc3cc(C)ncc3F)cc2C([2H])([2H])N1c1nn2c(=O)ccnc2cc1C [Compound 2-162, 7-(3-((5-fluoro-2-methylpyridin-4-yl)amino)-7,8-dihydro-1,6-naphthyridin-6(5H)-yl-5,5,7,7-d4)-8-methyl-4H-pyrimido[1,2-b]pyridazin-4-one] | 96% | 16 nM |
| [2H]C1([2H])Cc2ncc(Nc3cccnc3C)cc2C([2H])([2H])N1c1nn2c(=O)ccnc2cc1C [Compound 2-163, 8-methyl-7-(3-((2-methylpyridin-3-yl)amino)-7,8-dihydro-1,6-naphthyridin-6(5H)-yl-5,5,7,7-d4)-4H-pyrimido[1,2-b]pyridazin-4-one] | 79% | 388 nM |

The remaining lines, values ahead:

| Emax at 30 µM | EC50 | SMILES |
| --- | --- | --- |
| 94% | 7 nM | [2H]C1([2H])Cc2ncc(Nc3ccncc3F)cc2C([2H])([2H])N1c1nn2c(=O)ccnc2cc1C [Compound 2-164, 7-(3-((3-fluoropyridin-4-yl)amino)-7,8-dihydro-1,6-naphthyridin-6(5H)-yl-5,5,7,7-d4)-8-methyl-4H-pyrimido[1,2-b]pyridazin-4-one] |
| 66% | 127 nM | [2H]C1([2H])Cc2ncc(Nc3ccncc3C)cc2C([2H])([2H])N1c1nn2c(=O)ccnc2cc1C [Compound 2-165, 8-methyl-7-(3-((3-methylpyridin-4-yl)amino)-7,8-dihydro-1,6-naphthyridin-6(5H)-yl-5,5,7,7-d4)-4H-pyrimido[1,2-b]pyridazin-4-one] |
| 84% | 2 nM | [2H]C1([2H])Cc2ncc(Nc3ccccc3F)cc2C([2H])([2H])N1c1nn2c(=O)ccnc2cc1C [Compound 2-166, 7-(3-((2-fluorophenyl)amino)-7,8-dihydro-1,6-naphthyridin-6(5H)-yl-5,5,7,7-d4)-8-methyl-4H-pyrimido[1,2-b]pyridazin-4-one] |
| 75% | 40 nM | Cc1cc2nccc(=O)n2nc1N1CCc2ncc(Oc3ccccc3F)cc2C1 [Compound 3-1, 7-(3-(2-fluorophenoxy)-7,8-dihydro-1,6-naphthyridin-6(5H)-yl)-8-methyl-4H-pyrimido[1,2-b]pyridazin-4-one] |
| 80% | 55 nM | Cc1cc(=O)n2nc(N3CCc4ncc(Oc5ccccc5F)cc4C3)c(C)cc2n1 [Compound 3-2, 7-(3-(2-fluorophenoxy)-7,8-dihydro-1,6-naphthyridin-6(5H)-yl)-2,8-dimethyl-4H-pyrimido[1,2-b]pyridazin-4-one] |
| 96% | 29 nM | Cc1c(N2CCc3ncc(Oc4ccccc4F)cc3C2)nn2c(=O)ccnc2c1C [Compound 3-3, 7-(3-(2-Fluorophenoxy)-7,8-dihydro-1,6-naphthyridin-6(5H)-yl)-8,9-dimethyl-4H-pyrimido[1,2-b]pyridazin-4-one] |
